Experimental findings from US20100094407A1, “Multiple Bioactive Agent Eluting Stents” (Medtronic Vascular, Inc., priority 2008, published 2010) are described below.

The nature of the series: Elution of fluocinolone and zotarolimus from coated stents, Example 1. Format: physicochemical. The conditions noted are these: 60 μg zotarolimus with or without 80 μg fluocinolone; FIG. 4. The text has this: In one embodiment, the present disclosure relates to a multiple bioactive agent eluting stent comprising a stent framework, at least two bioactive agents on the stent framework, wherein one or more of the at least two bioactive agents affects the elution rate of one or more of the other of the at least two bioactive agents. The elution rate or profile of the bioactive agents can be determined utilizing the methods showing in Examples 1 and 2 below. For example, total cumulative release of applied bioactive agents can be measured to determine total daily release and also release over a period of time greater than one day. The at least two bioactive agents may be applied together onto a stent framework. There may be one coating which contains all of the bioactive agents. Alternatively, the bioactive agents can be applied to the stent framework in separate coatings. Each coating may contain just one bioactive agent or more than one bioactive agent. The coatings may constitute separate layers. There can also be a base layer and cap layer on the stent framework. Base layer is located closest to the stent framework and the cap layer is a layer which is located furthest away from the stent framework. The layers can be uniform or non-uniform, meaning the layers can be in the form of, for example, dots or stripes or other non-uniform patterns.
12 mm parylene coated stents were used for all builds. […]

Take `CO[C@H]1C[C@@H]2CC[C@@H](C)[C@@](O)(O2)C(=O)C(=O)N2CCCC[C@H]2C(=O)O[C@H]([C@H](C)C[C@@H]2CC[C@H](n3cnnn3)[C@H](OC)C2)CC(=O)[C@H](C)/C=C(\C)[C@@H](O)[C@@H](OC)C(=O)[C@H](C)C[C@H](C)/C=C/C=C/C=C/1C` [zotarolimus]: the “zotarolimus elution rate / total cumulative release, combination with fluocinolone vs zotarolimus alone” value was “increased”.
